Reference: paper PMC3706879, “The neurotrophic compound J147 reverses cognitive impairment in aged Alzheimer's disease mice” (Alzheimer's Research & Therapy, 2013)

Columns and labels:
[1] = test system: BDNF; set-up: method as in PMID 21343524; details: rat traumatic brain injury models; cited from earlier work
[2] = test system: C57BL/6J mice; assay: Y-maze, scopolamine induced memory impairment; type: in vivo; details: scopolamine 1 mg/kg i.p.; J147 200 ppm, donepezil 20 ppm in food for two weeks
Procedure: (§1) A total of 60 male mice aged eight weeks were housed 4 per cage and were divided into five groups with 12 mice per group. Treatments were administered in the food (TestDiet® 5015, Richmond, IN, USA) for a period of two weeks before commencement of behavioral testing. […] Following two weeks of treatment, memory impairment was induced by intraperitoneal (i.p.) injection of scopolamine (1 mg/kg) 30 minutes prior to each of the following behavioral tests: Y-maze, probe trial of the water maze and contextual and cued fear conditioning. Mice were allowed to rest for two days between each behavior test. All mice received scopolamine except for one of the control groups, which received saline as a control. Mice were sacrificed 24 hours after the last behavioral test for tissue harvesting.
Spontaneous alternation, the tendency to alternate free choices in a Y-maze (three arms), is a model for studying short term working memory in mice. Mice were injected with 1 mg/kg of scopolamine or saline 30 minutes prior to testing. Then each mouse was placed in the center of the Y and arm entries were recorded by video camera and the order of entries were recorded for the first 15 entries. Spontaneous alternations are defined as consecutive triplets of different arm choices.

[3] = test system: C57BL/6J mice; assay: two-day water maze, scopolamine induced memory impairment; type: in vivo; details: scopolamine 1 mg/kg i.p.; J147 200 ppm, donepezil 20 ppm in food for two weeks
Procedure: as §1
Spatial memory was determined using the two-day water maze in 23-month-old huAPPswe/PS1 transgenic mice fed J147 at 200 ppm in food for the previous three months. The protocol was adapted from a publication by Gulinello and colleagues. Water temperature remained at 27°C throughout the experiment. […] The time it took each mouse to find the hidden platform was measured as escape latency. […] All trials were recorded using the EthoVision Software and statistics were computed using GraphPad Instat software (GraphPad Software, San Diego, CA, USA).

[4] = test system: C57BL/6J mice; assay: fear conditioning, scopolamine induced memory impairment; type: in vivo; details: scopolamine 1 mg/kg i.p.; J147 200 ppm, donepezil 20 ppm in food; vs scopolamine
Procedure: as §1
Fear conditioning to either a cue or a context represents a form of associative learning. The read-out that is measured in contextual and cued fear conditioning is a freezing response that occurs following the pairing of an unconditioned stimulus (US), such as a foot shock, with a conditioned stimulus (CS), such as a particular context or cue (tone). The mouse will freeze if it remembers and associates that environment with the aversive stimulus. The hippocampus and the amygdala are required for fear memory where the hippocampus is involved in the formation and retrieval of context fear associations and the amygdala is involved in conditioning and recall of associations to contextual and discrete cues. This assay used fear conditioning chambers from Med Associates Inc. with Video Freeze Software (Med Associates Inc, St. Albans, VT, USA). On Day 1, mice were trained by allowing them to explore the chamber for 120 sec, mice were then presented with a 30-sec tone (2 kHz with 85 dB intensity) immediately followed by a 2-sec foot shock (0.7 mA). The tone-shock pairing was repeated following a 30-sec interval and the mice were again allowed to explore for 120 sec before removing them from the chamber. On Day 2, contextual memory, which requires a functioning hippocampus, was tested by placing the mice in the chambers and allowing them to explore for the same length of time as the previous day but without the tone and the shock. On Day 3, cued or emotional memory was tested, which relies on both hippocampus and amygdala. […] On Day 2, the time spent freezing is measured over the entire time in the chamber. […] The percentage of time spent freezing by each mouse is averaged per group and then groups can be compared and P-values calculated to determine statistical significance. On Day 3, the percentage of time spent freezing during the two tones is averaged per group, and then groups can be compared and P-values calculated to determine statistical significance. […]

| Structure (SMILES) | BDNF levels [1] | short-term working memory (spontaneous alternations, Y maze) [2] | spatial memory (time to find hidden platform) [3] | contextual memory (freezing Day 2) [4] | cued memory (freezing in response to the tone, Day 3) [4] |
| --- | --- | --- | --- | --- | --- |
| COc1cc(/C=C/c2cc(/C=C/c3ccc(O)c(OC)c3)n(-c3ccccc3)n2)ccc1O [CNB-001] | increases BDNF levels | – | – | – | – |
| COc1cc2c(cc1OC)C(=O)C(CC1CCN(Cc3ccccc3)CC1)C2 (centres unmarked) [donepezil, reference compound] | – | improve short-term working memory | failed to rescue the deficit | did not improve memory | neither effect was significant |
